In experiment [1] the test system is synthesis of estrogens. Put plainly: Estrogen synthesis inhibition in rats (uterine weight and ovarian steroid concentrations). It counts as in vivo, Immature female Wistar rats. To be noted: for Mean Steroid Concentration estradiol / Mean Steroid Concentration estriol / Mean Steroid Concentration estrone: ovaries. The method, then:
Immature female Wistar rats (45-55 grams) were divided into control and test groups of 4-5 animals each. Test compounds were administered for seven days daily by gavage in corn oil. Control animals received corn oil without the test compound. Beginning on the fourth day of the test, all animals treated with the test compound and one half of the control animals were given a subcutaneous injection of 1.0 mg of testosterone propionate in corn oil. The remaining control animals received only an equivalent volume of corn oil. On the seventh day of the test, rats treated with testosterone propionate were injected subcutaneously with 100 µCi of [^3H]-testosterone in 50 pl of 3:1 (v/v) saline-ethanol.
After two hours, the animals were killed by decapitation. Uteri were isolated, trimmed of extraneous connective tissue, and weighed. […] In the control animals treated with testosterone propionate, estrogens produced by aromatization stimulated the uterus resulting in an increase in weight.
Ovaries from rats treated with [^3H]-testosterone were excised, cleaned of extraneous tissue, and homogenized in 2.5 ml of a 1.0 mM potassium phosphate buffer containing 3.0 mM MgC12-6H20, 320 mM sucrose, and 0.25% Triton X-100 (polyethylene glycol p-isooctyl phenyl ether, Rohm and Haas) at pH 6.5. The ovarian steroids were extracted with 1.5 ml of 9:1 (v/v) toluene/ethanol to which had been added 25 to 100 mcg each of unlabelled estradiol, estriol, and estrone, and approximately 1000 dpm of [^14C]-estradiol. The samples were vortexed, centrifuged at 500 x g for 10 minutes, and the organic phase was transferred to a conical vial. Two additional extractions were performed on the residue in the same way. The pooled organic extracts were evaporated for subsequent thin-layer chromatography.
Ovarian proteins were precipitated by the addition of 5.0 ml of ethanol to the remaining aqueous phase. After an overnight incubation at 4°C, the samples were centrifuged at 1500 x g for 10 minutes. The supernatant was discarded and the pellet was dissolved in 0.3 N potassium hydroxide. Protein was determined according to the method of Bradford, Analytical Biochemistry, 72, 248 (1976).
The organic residue from each above extraction was redissolved in 9:1 (v/v) dichioromethane/ methanol. The solution of each sample was applied to separate silica gel thin layer chromatography plates which contained a fluorescent indicator. The plates were developed in the first dimension with 160:38:1.5:0.5 (v/v/v/v) dichloromethane/ethyl acetate/methanol/acetic acid to within 3 cm of the top of the plate. After air-drying, the plate was developed in the second dimension with 180:19:1 (v/v/v) dichloromethane/methanol/ammonium hydroxide. The plate was air-dried and viewed under 254 nm UV light.
The visible spots were marked and the plates were sprayed with primulin (0.001% in 4:1 v/v acetone/ water) according to the method of Wright, J. Chromatography, '59, 220 (1971) which allowed for the identification of additional steroids under 365 nm UV light. The spots were scraped from the plate using a glass wool plugged Pasteur pipet attached to a vacuum line. The steroids were eluted directly into scintillation vials by the addition of 0.2 ml of dichloromethane followed by two washes each of 2.0 ml of methanol. The organic solvent was evaporated and 10.0 ml of scintillation fluid (Beckman Ready Solv-NA) was added to the vials. Samples were analyzed by liquid scintillation spectrometry. Corrections were made based on the recoveries of the [^14C]-steroid. Steroid concentrations are expressed as femtomoles per milligram protein.

For experiment [2], the target named is T1, aromatase (Rattus norvegicus, UniProt P22443).
T1 construct: ovarian microsomes are obtained from rats treated with pregnant mares serum gonadotropin; from tissue; host or cells: rat ovarian microsomes (rats treated with pregnant mares serum gonadotropin)
T1 sequence (P22443 1-508): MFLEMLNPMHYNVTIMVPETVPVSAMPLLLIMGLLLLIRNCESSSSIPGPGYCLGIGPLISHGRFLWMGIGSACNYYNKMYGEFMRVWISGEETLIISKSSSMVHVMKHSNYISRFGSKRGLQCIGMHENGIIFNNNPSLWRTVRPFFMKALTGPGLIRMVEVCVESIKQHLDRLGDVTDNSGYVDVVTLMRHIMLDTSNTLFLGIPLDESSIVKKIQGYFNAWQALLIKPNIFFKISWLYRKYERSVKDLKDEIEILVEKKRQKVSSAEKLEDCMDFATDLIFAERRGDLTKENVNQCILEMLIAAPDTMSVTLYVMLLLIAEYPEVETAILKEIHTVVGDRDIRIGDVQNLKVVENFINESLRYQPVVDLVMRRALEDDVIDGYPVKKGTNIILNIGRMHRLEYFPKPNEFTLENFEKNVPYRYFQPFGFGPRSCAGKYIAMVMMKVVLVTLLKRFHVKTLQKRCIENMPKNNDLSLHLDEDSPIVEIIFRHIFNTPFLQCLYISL
Briefly: Aromatase inhibition in the rat ovarian microsome assay. In kind it is biochemical. To be noted: read-out: EC50 (the source's name). As to the method:
In this test system, ovarian microsomes are obtained from rats treated with pregnant mares serum gonadotropin. Test compounds are added to reaction vials containing 0.1 µM 4-androstene-3,17-dione, 100,000 dpm 1,2[^3H]-androstenedione, the microsomes and a NADPH generating system. The concentrations of the inhibitors tested ranged between 0.005 and 10 um.

Where [3] appears, read: 1 mg/kg p.o. by gavage daily for seven days.
Setting [4] is: 3 mg/kg p.o. by gavage daily for seven days.
[5] abbreviates: 10 mg/kg p.o. by gavage daily for seven days.
[6] abbreviates: 30 mg/kg p.o. by gavage daily for seven days.
Setting [7] is: 100 mg/kg p.o. by gavage daily for seven days.

The source of these data is EP0168965B1, “4(5)-substituted imidazoles” (ELI LILLY AND COMPANY, priority 1984, dated 1986).

With `OC(c1ccc(Cl)cc1)(c1ccc(Cl)cc1)c1c[nH]cn1` [Example 3, a,a-bis(4-chlorophenyl)-4(5)-imidazolemethanol], the “Mean Steroid Concentration estradiol” value in experiment [1] (setting [3]) is given as 0.35 femtomoles per milligram of protein; in experiment [1] (setting [4]), 0.31 femtomoles per milligram of protein; in experiment [1] (setting [5]), 0.19^+ femtomoles per milligram of protein; in experiment [1] (setting [6]) it was 0.22 femtomoles per milligram of protein; in experiment [1] (setting [7]) it was 0.10^+ femtomoles per milligram of protein. Also, the “Mean Steroid Concentration estriol” value in experiment [1] (setting [3]) is given as 0.132 femtomoles per milligram of protein; in experiment [1] (setting [4]), 0.383 femtomoles per milligram of protein; in experiment [1] (setting [5]) it was 0.218 femtomoles per milligram of protein; in experiment [1] (setting [6]), 0.391 femtomoles per milligram of protein; in experiment [1] (setting [7]), 0.534^+ femtomoles per milligram of protein. The “Mean Steroid Concentration estrone” value in experiment [1] (setting [3]) is on record as 0.00 femtomoles per milligram of protein; in experiment [1] (setting [4]), 0.05 femtomoles per milligram of protein; in experiment [1] (setting [5]) it was 0.03 femtomoles per milligram of protein; in experiment [1] (setting [6]), 0.07 femtomoles per milligram of protein; in experiment [1] (setting [7]), 0.36^+ femtomoles per milligram of protein. Further, the “Mean Uterine Weight” value in experiment [1] (1 mg/kg p.o. by gavage daily for seven days, testosterone propionate-treated rats) is 214.2 mg. Moreover, the “Mean Uterine Weight (mg)” value in experiment [1] (3 mg/kg p.o. by gavage daily for seven days, testosterone propionate-treated rats) is recorded as 158.8^+ mg; in experiment [1] (10 mg/kg p.o. by gavage daily for seven days, testosterone propionate-treated rats), 131.2^+ mg; in experiment [1] (30 mg/kg p.o. by gavage daily for seven days, testosterone propionate-treated rats), 96.2^+ mg; in experiment [1] (100 mg/kg p.o. by gavage daily for seven days, testosterone propionate-treated rats), 79.5^+ mg.
Turning to `Fc1ccc(C(c2ccc(F)cc2)c2c[nH]cn2)cc1` [Example 1, 4(5)-[Bis(4-fluorophenyl)methyl]-1H-imidazole], the IC50 in experiment [2] is less than 50 nM.
As to `Fc1ccc(C(c2ccc(Cl)cc2)c2c[nH]cn2)cc1` (stereo not shown) [Example 2, 4(5)-[(4-Chlorophenyl)(4-fluorophenyl)methyl]imidazole], the IC50 in experiment [2] was less than 50 nM.
